Data on two compounds can be found in patent US6428950B1, “Assay to identify compounds that alter apolipoprotein E expression” (Scios Inc., priority 1998, dated 2002).

SMILES strings stand for the structures.

Test [1] deals with murine mixed primary glia. The test can be described thus: basal apoE production from murine mixed primary glia cultures. The test is classed as cell-based. The conditions noted are these: no β-amyloid treatment, FIG. 5. From the text: Primary mixed glial cultures, purified primary astrocyte, and purified primary microglial cultures prepared from rodent or human brain tissue (generally fetal) were used in the test assay. A variety of preparation methods can be used to isolate primary glial cultures, both mixed and purified for astroglial or microglial cell types. See e.g. McCarthy and de Vellis, J. Cell Biol. 85:890-902 (1980); Levinson & McCarthy in Culturing Nerve Cells, MIT Press, Cambridge, Mass. at 309-336 (1991); Hu et al. J. Biol. Chem. 271:2543-2547 (1996); Stone et al. Exptl. Neurol. 143:313-318 (1997); Barger et al. Mol. Brain Res. 40:116-126 (1996); and Manthorpe et al. J. Neurocytol. 8:605-621 (1979). Also, primary glial cultures can be prepared which include neurons, such as in the procedure described by Messmer-Joudrier et al. Eur. J. Neurosci. 8: 2652-2661 (1996). For primary cell cultures, different brain regions were used to isolate the cells. Hippocampal, cortical, cerebellar or brain stem cultures were prepared. Primary and continuous cell lines were plated into wells of a multi-well plate at a subconfluent density for the assay. Typically, the cultures were used within 1-2 days of initial plating. […]

Test [2] deals with organotypic hippocampal cultures. The test can be described thus: apoE release from organotypic hippocampal brain slice cultures. The test is classed as cell-based, rat. The conditions noted are these: for inhibition of apoE: organotypic hippocampal brain slice cultures, FIG. 7.
Protocol: Eight day old neonatal rat or mouse pups were quickly decapitated with scissors, serrated on one edge, in an aseptic fume hood. The brain was rapidly removed to buffered dissection media containing 100 ml MEM, 1 ml penicillin/streptomycin, 1 ml Tris 100×stock (10 mm final, pH 7.2), sterile filtered and chilled. The hippocampi and cortices were isolated under a dissecting microscope and transported in dissection media to a sterile fume hood. Tissue was positioned on the stage of a MacIllwain tissue chopper with a sterile paint brush, and 400 μm sections were made. Approximately 30 sections per animal were be obtained. Sections were separated by vigorously swirling the petri dish containing the sections in culture media, containing 25% horse serum, 25% Hank's media, 50% minimal essential media, 1 ml penicillin/streptomycin, 0.5 ml L-glutamine. Sections were inspected with a dissecting microscope and damaged tissue removed. The selected sections were manipulated in drops of dissecting media with Pasteur pipettes which had been scored and broken, then fire polished, to produce appropriate diameter bores, and placed on Millipore culture plate inserts set into 35 mm plate containing 1 ml culture media or 6 well plates containing 1.2 ml culture media. Plates containing inserts and media had been pre-equilibrated to 37° C. and 5% CO2. Three to six slices were positioned on each insert. Excess media was drawn off the slice, and the culture placed in a 37° C., 5% CO2 incubator. Cultures were maintained for up to 3 months. Media was changed at 24 hours, and at 3-4 day intervals.
Media was pre-equilibrated in plates at 37° C., 5% CO2. Culture inserts holding 3 rat organotypic brain slices obtained from 8 day old animals and maintained in culture for 2 weeks were transferred to the media containing test solution. […]
After treatment, medium is harvested and assayed for apoE levels using immunoassays such as ELISA or Western blot. Cell lysates prepared from the treated brain slices and analyzed for cell-associated apoE using the same assays.
Test [3] has as its system BV-2 microglial cells. The test can be described thus: basal apoE production from BV-2 microglial cell cultures. The class given is cell-based, murine. To be noted: no β-amyloid treatment, FIG. 5. From the text: Microglial cell lines were used to evaluate changes in apoE expression. Microglial cell lines for use in the method of the invention include murine lines, e.g. BV-2 cell line (Blasi et al. J. Neuroimmunol. 27:229-237 (1990) and the N9 cell line (Corradin et al. Glia 7:255-262 (1993) or human lines such as those described in Janabi et al. Neurosci. Lett. 195:105-108 (1995). The microglial cell lines used were obtained from the investigators who isolated the lines. Astroglial continuous cell lines were also utilized in the assay, e.g. the human U373-MG line or the rodent lines C6 and DI TNC1. All of these astrocytic lines were obtained, from the American Tissue Culture Collection cell repository (Rockville, Md.).
To screen for inhibitors of apoE secretion or production using cultured brain cells, wells containing cultures were incubated in serum-free medium or medium containing reduced serum concentrations (1 to 0.1%) for various periods of time anywhere from 1-72 hours in the presence of the test compound. For some inhibitors, such as HMG CoA reductase and farnesylation inhibitors, pre-treatment of the cultures with the compound for 4-16 hours in serum-containing growth medium was used to maximize the effectiveness of the assay. Cultures were treated with β-amyloid to stimulate apoE levels in the test paradigm. […]

Turning to `COC(=O)[C@H](CC(C)C)NC(=O)c1ccc(NC[C@@H](N)CS)cc1-c1ccccc1` [GGTI-286], the “basal apoE levels” value in test [1] and in test [3] was “reduced basal apoE levels” each time. The apoE release result in test [2] (organotypic hippocampal cultures, 24, 48, 72 hours after treatment, FIG. 6) was “inhibitory effect on apoE release”.
In the case of `O=C([O-])c1ccccc1O.[Na+]` [sodium salicylate], the “inhibition of apoE” value in test [2] was “time- and dose-dependent inhibition of apoE”; in test [2] (listed as NaSalicylate) it was “dose dependent inhibition of apoE”.
